Laboratory results as given in ChEMBL document CHEMBL3124777, “Synthesis and biological evaluation of thiazoline derivatives as new antimicrobial and anticancer agents” (Eur J Med Chem, 2014).
Values after ≈ are worked out from the molar mass of the structure shown.

Experiments:
Fusarium solani = experiment: Antimicrobial activity against Fusarium solani NRRL 13414 after 48 to 72 hrs by microbroth dilution method; assay type: functional
Fusarium verticillioides = experiment: Antimicrobial activity against Fusarium moniliforme NRRL 1866 after 48 to 72 hrs by microbroth dilution method; assay type: functional
Listeria monocytogenes = experiment: Antimicrobial activity against Listeria monocytogenes ATCC 7644 after 18 to 24 hrs by microbroth dilution method; assay type: functional
Candida albicans = experiment: Antimicrobial activity against Candida albicans ATCC 22019 after 18 to 24 hrs by microbroth dilution method; assay type: functional
Penicillium chrysogenum = experiment: Antimicrobial activity against Penicillium chrysogenum NRRL 1951 after 48 to 72 hrs by microbroth dilution method; assay type: functional
Fusarium culmorum = experiment: Antimicrobial activity against wild type Fusarium culmorum after 48 to 72 hrs by microbroth dilution method; assay type: functional
Pseudomonas aeruginosa = experiment: Antimicrobial activity against Pseudomonas aeruginosa […] after 18 to 24 hrs by microbroth dilution method; assay type: functional
NIH3T3 = experiment: Cytotoxicity against mouse NIH/3T3 cells after 24 hrs by MTT assay; assay type: cell-based; details: NIH3T3, 24 h
Escherichia coli = experiment: Antimicrobial activity against Escherichia coli ATCC 25922 after 18 to 24 hrs by microbroth dilution method; assay type: functional
Staphylococcus aureus = experiment: Antimicrobial activity against Staphylococcus aureus NRRL B-767 after 18 to 24 hrs by microbroth dilution method; assay type: functional
Micrococcus luteus = experiment: Antimicrobial activity against Micrococcus luteus NRLL B-4375 after 18 to 24 hrs by microbroth dilution method; assay type: functional
Aspergillus parasiticus = experiment: Antimicrobial activity against Aspergillus parasiticus NRRL 465 after 48 to 72 hrs by microbroth dilution method; assay type: functional
Bacillus subtilis = experiment: Antimicrobial activity against Bacillus subtilis NRS-744 after 18 to 24 hrs by microbroth dilution method; assay type: functional
Aspergillus ochraceus = experiment: Antimicrobial activity against Aspergillus ochraceus NRRL 3174 after 48 to 72 hrs by microbroth dilution method; assay type: functional
Trichoderma harzianum = experiment: Antimicrobial activity against Trichoderma harzianum NRRL 20565 after 48 to 72 hrs by microbroth dilution method; assay type: functional

Row | SMILES | MIC (Fusarium solani) [µg/mL] | MIC (Fusarium verticillioides) [µg/mL] | MIC (Listeria monocytogenes) [µg/mL] | MIC (Candida albicans) [µg/mL] | MIC (Penicillium chrysogenum) [µg/mL] | MIC (Fusarium culmorum) [µg/mL] | MIC (Pseudomonas aeruginosa) [µg/mL] | IC50 (NIH3T3) [µg/mL] | MIC (Escherichia coli) [µg/mL] | MIC (Staphylococcus aureus) [µg/mL] | MIC (Micrococcus luteus) [µg/mL] | MIC (Aspergillus parasiticus) [µg/mL] | MIC (Bacillus subtilis) [µg/mL] | MIC (Aspergillus ochraceus) [µg/mL] | MIC (Trichoderma harzianum) [µg/mL]
1 | COc1ccc(-c2cs/c(=N/NC(=O)CSc3nnnn3C)n2-c2ccccc2)cc1 | 250 (≈ 551 µM) | 250 (≈ 551 µM) | 250 (≈ 551 µM) | 250 (≈ 551 µM) | 250 (≈ 551 µM) | 250 (≈ 551 µM) | 250 (≈ 551 µM) | 45 (≈ 99.2 µM) | 500 (≈ 1100 µM) | 250 (≈ 551 µM) | 250 (≈ 551 µM) | 250 (≈ 551 µM) | 250 (≈ 551 µM) | 250 (≈ 551 µM) | 250 (≈ 551 µM)
2 | O=C(CSc1ncccn1)N/N=c1/scc(-c2ccc([N+](=O)[O-])cc2)n1-c1ccccc1 | 250 (≈ 538 µM) | 250 (≈ 538 µM) | 250 (≈ 538 µM) | 250 (≈ 538 µM) | 250 (≈ 538 µM) | 250 (≈ 538 µM) | 250 (≈ 538 µM) | 193 (≈ 416 µM) | 250 (≈ 538 µM) | 250 (≈ 538 µM) | 250 (≈ 538 µM) | 250 (≈ 538 µM) | 250 (≈ 538 µM) | 250 (≈ 538 µM) | 250 (≈ 538 µM)
3 | CN[C@@H]1[C@H](O[C@H]2[C@H](O[C@H]3[C@H](O)[C@@H](O)[C@H](N=C(N)N)[C@@H](O)[C@@H]3N=C(N)N)O[C@@H](C)[C@]2(O)C=O)O[C@@H](CO)[C@H](O)[C@H]1O [STREPTOMYCIN] | – | – | 7.81 (≈ 13.4 µM) | – | – | – | 125 (≈ 215 µM) | – | 31.2 (≈ 53.7 µM) | 31.2 (≈ 53.7 µM) | 15.6 (≈ 26.9 µM) | – | 15.6 (≈ 26.9 µM) | – | –
4 | Cc1nnc(SCC(=O)N/N=c2/scc(-c3ccc([N+](=O)[O-])cc3)n2-c2ccccc2)s1 | 250 (≈ 516 µM) | 250 (≈ 516 µM) | 250 (≈ 516 µM) | 250 (≈ 516 µM) | 250 (≈ 516 µM) | 250 (≈ 516 µM) | 250 (≈ 516 µM) | 177 (≈ 365 µM) | 250 (≈ 516 µM) | 500 (≈ 1030 µM) | 250 (≈ 516 µM) | 250 (≈ 516 µM) | 250 (≈ 516 µM) | 250 (≈ 516 µM) | 250 (≈ 516 µM)
5 | O=C(CSc1nnnn1-c1ccccc1)N/N=c1/scc(-c2ccc([N+](=O)[O-])cc2)n1-c1ccccc1 | 250 (≈ 471 µM) | 250 (≈ 471 µM) | 250 (≈ 471 µM) | 250 (≈ 471 µM) | 250 (≈ 471 µM) | 250 (≈ 471 µM) | 250 (≈ 471 µM) | 14.3 (≈ 27 µM) | 250 (≈ 471 µM) | 250 (≈ 471 µM) | 500 (≈ 942 µM) | 250 (≈ 471 µM) | 250 (≈ 471 µM) | 250 (≈ 471 µM) | 125 (≈ 236 µM)
6 | Cc1nnc(SCC(=O)N/N=c2/scc(-c3ccc(Br)cc3)n2-c2ccccc2)s1 | 250 (≈ 482 µM) | 250 (≈ 482 µM) | 250 (≈ 482 µM) | 250 (≈ 482 µM) | 250 (≈ 482 µM) | 250 (≈ 482 µM) | 250 (≈ 482 µM) | 55 (≈ 106 µM) | 250 (≈ 482 µM) | 500 (≈ 964 µM) | 250 (≈ 482 µM) | 250 (≈ 482 µM) | 500 (≈ 964 µM) | 250 (≈ 482 µM) | 125 (≈ 241 µM)
7 | Cn1nnnc1SCC(=O)N/N=c1/scc(-c2ccc(F)cc2)n1-c1ccccc1 | 250 (≈ 566 µM) | 250 (≈ 566 µM) | 250 (≈ 566 µM) | 250 (≈ 566 µM) | 250 (≈ 566 µM) | 250 (≈ 566 µM) | 250 (≈ 566 µM) | 113 (≈ 257 µM) | 125 (≈ 283 µM) | 250 (≈ 566 µM) | 250 (≈ 566 µM) | 250 (≈ 566 µM) | 250 (≈ 566 µM) | 250 (≈ 566 µM) | 250 (≈ 566 µM)
8 | Cn1nnnc1SCC(=O)N/N=c1/scc(-c2ccc(Cl)cc2)n1-c1ccccc1 | 250 (≈ 546 µM) | 250 (≈ 546 µM) | 250 (≈ 546 µM) | 250 (≈ 546 µM) | 250 (≈ 546 µM) | 250 (≈ 546 µM) | 250 (≈ 546 µM) | 40 (≈ 87.3 µM) | 250 (≈ 546 µM) | 500 (≈ 1090 µM) | 250 (≈ 546 µM) | 250 (≈ 546 µM) | 250 (≈ 546 µM) | 250 (≈ 546 µM) | 250 (≈ 546 µM)
9 | COc1ccc(-c2cs/c(=N/NC(=O)CSc3nnnn3-c3ccccc3)n2-c2ccccc2)cc1 | 250 (≈ 485 µM) | 250 (≈ 485 µM) | 250 (≈ 485 µM) | 250 (≈ 485 µM) | 250 (≈ 485 µM) | 125 (≈ 242 µM) | 250 (≈ 485 µM) | 11.7 (≈ 22.7 µM) | 250 (≈ 485 µM) | 250 (≈ 485 µM) | 125 (≈ 242 µM) | 250 (≈ 485 µM) | 500 (≈ 970 µM) | 250 (≈ 485 µM) | 125 (≈ 242 µM)
